Source: patent US8927538B2, “Carbazole linked pyrrolo[2,1-c][1,4]benzodiazefine hybrids as potential anticancer agents and process for the preparation thereof” (Council of Scientific & Industrial Research, priority 2010, dated 2015)

Legend:
[1] = tested on: SK-MEL-5; experiment: NCI SRB cytotoxicity, SK-MEL-5; format: cell-based, human; settings: Melanoma SK-MEL-5, 48 hrs exposure
Source text: (§1) The C8-linked carbazole-PBD hybrids have been tested against sixty human tumour cell lines derived from nine cancer types (leukemia, non-small cell lung cancer, colon cancer, CNS cancer, melanoma, ovarian cancer, renal cancer, prostate cancer and breast cancer) as per NCI protocol, For each compound, dose response curves for individual cell lines have been measured at a minimum of five concentrations at 10 fold dilutions. A protocol of 48 hrs continuous drug exposure has been used, and a sulforhodamine B (SRB) protein assay was used to estimate cell viability or growth. The concentration for 50% cell growth inhibition (GI50), total cell growth inhibition (TGI, 0% growth) and 50% cell death (LC50, […]) compared with the control has been calculated (Table-3).
(§2) Compounds 6c and 14a have been evaluated for in vitro cytotoxicity in sixty cell lines from nine human cancer types of lung (Hop-62, NCI-H226, NCI-H522), leukemia (K-562, SR), colon (HCT-116, HCT-15, HCC-2998), CNS(SF-539), melanoma (SK-MEL-5, UACC-62, M14), ovarian (IGROV1), renal (A498), prostate (PC3) breast (BT-549, MDA-MB-435, HS578T) origin. The results are expressed as percent of cell growth determined relative to that of untreated control cells (Table 1).

[2] = tested on: RXF 393; experiment: NCI SRB cytotoxicity, RXF 393; format: cell-based, human; settings: Renal RXF 393, 48 hrs exposure
Source text: as §1, §2

[3] = tested on: HS 578T; experiment: NCI SRB cytotoxicity, HS 578T; format: cell-based, human; settings: Breast HS 578T, 48 hrs exposure
Source text: as §1, §2

[4] = tested on: SNB-75; experiment: NCI SRB cytotoxicity, SNB-75; format: cell-based, human; settings: CNS SNB-75, 48 hrs exposure
Source text: as §1, §2

[5] = tested on: SNB-19; experiment: NCI SRB cytotoxicity, SNB-19; format: cell-based, human; settings: CNS SNB-19, 48 hrs exposure
Source text: as §1, §2

[6] = tested on: 786-0; experiment: NCI SRB cytotoxicity, 786-0; format: cell-based, human; settings: Renal 786-0, 48 hrs exposure
Source text: as §1, §2

[7] = tested on: EKVX; experiment: NCI SRB cytotoxicity, EKVX; format: cell-based, human; settings: Non-small cell lung EKVX, 48 hrs exposure
Source text: as §1, §2

[8] = tested on: HOP-92; experiment: NCI SRB cytotoxicity, HOP-92; format: cell-based, human; settings: Non-small cell lung HOP-92, 48 hrs exposure
Source text: as §1, §2

[9] = tested on: MALME-3M; experiment: NCI SRB cytotoxicity, MALME-3M; format: cell-based, human; settings: Melanoma MALME-3M, 48 hrs exposure
Source text: as §1, §2

[10] = tested on: prostate cancer cell lines; experiment: NCI SRB cytotoxicity, prostate panel; format: cell-based, human; settings: average of cell lines
Source text: as §1, §2

[11] = tested on: HCC-2998; experiment: NCI SRB cytotoxicity, HCC-2998; format: cell-based, human; settings: Colon HCC-2998, 48 hrs exposure
Source text: as §1, §2

[12] = tested on: HCT-116; experiment: NCI SRB cytotoxicity, HCT-116; format: cell-based, human; settings: Colon HCT-116, 48 hrs exposure
Source text: as §1, §2

[13] = tested on: A498; experiment: NCI SRB cytotoxicity, A498; format: cell-based, human; settings: Renal A498, 48 hrs exposure
Source text: as §1, §2

[14] = tested on: ACHN; experiment: NCI SRB cytotoxicity, ACHN; format: cell-based, human; settings: Renal ACHN, 48 hrs exposure
Source text: as §1, §2

[15] = tested on: MDA-MB-435; experiment: NCI SRB cytotoxicity, MDA-MB-435; format: cell-based, human; settings: Breast MDA-MB-435, 48 hrs exposure
Source text: as §1, §2

[16] = tested on: HOP-62; experiment: NCI SRB cytotoxicity, HOP-62; format: cell-based, human; settings: Non-small cell lung HOP-62, 48 hrs exposure
Source text: as §1, §2

[17] = tested on: SK-MEL-28; experiment: NCI SRB cytotoxicity, SK-MEL-28; format: cell-based, human; settings: Melanoma SK-MEL-28, 48 hrs exposure
Source text: as §1, §2

[18] = tested on: UACC-257; experiment: NCI SRB cytotoxicity, UACC-257; format: cell-based, human; settings: Melanoma UACC-257, 48 hrs exposure
Source text: as §1, §2

[19] = tested on: Melanoma cancer cell lines; experiment: NCI SRB cytotoxicity, melanoma panel; format: cell-based, human; settings: average of six to eight cell lines
Source text: as §1, §2

[20] = tested on: ovarian cancer cell lines; experiment: NCI SRB cytotoxicity, ovarian panel; format: cell-based, human; settings: average of six to eight cell lines
Source text: as §1, §2

[21] = tested on: HCT-15; experiment: NCI SRB cytotoxicity, HCT-15; format: cell-based, human; settings: Colon HCT-15, 48 hrs exposure
Source text: as §1, §2

[22] = tested on: Renal cancer cell lines; experiment: NCI SRB cytotoxicity, renal panel; format: cell-based, human; settings: average of six to eight cell lines
Source text: as §1, §2

[23] = tested on: MDA-MB-; experiment: NCI SRB cytotoxicity, MDA-MB-; format: cell-based, human; settings: Breast MDA-MB-, 48 hrs exposure
Source text: as §1, §2

[24] = tested on: IGROV1; experiment: NCI SRB cytotoxicity, IGROV1; format: cell-based, human; settings: Ovarian IGROV1, 48 hrs exposure
Source text: as §1, §2

[25] = tested on: Non small cell lung cancer cell lines; experiment: NCI SRB cytotoxicity, non-small cell lung panel; format: cell-based, human; settings: average of six to eight cell lines
Source text: as §1, §2

[26] = tested on: SK-MEL-2; experiment: NCI SRB cytotoxicity, SK-MEL-2; format: cell-based, human; settings: Melanoma SK-MEL-2, 48 hrs exposure
Source text: as §1, §2

[27] = tested on: OVCAR-3; experiment: NCI SRB cytotoxicity, OVCAR-3; format: cell-based, human; settings: Ovarian OVCAR-3, 48 hrs exposure
Source text: as §1, §2

[28] = tested on: OVCAR-4; experiment: NCI SRB cytotoxicity, OVCAR-4; format: cell-based, human; settings: Ovarian OVCAR-4, 48 hrs exposure
Source text: as §1, §2

[29] = tested on: CNS cancer cell lines; experiment: NCI SRB cytotoxicity, CNS panel; format: cell-based, human; settings: average of six to eight cell lines
Source text: as §1, §2

[30] = tested on: UACC-62; experiment: NCI SRB cytotoxicity, UACC-62; format: cell-based, human; settings: Melanoma UACC-62, 48 hrs exposure
Source text: as §1, §2

[31] = tested on: COLO 205; experiment: NCI SRB cytotoxicity, COLO 205; format: cell-based, human; settings: Colon COLO 205, 48 hrs exposure
Source text: as §1, §2

[32] = tested on: breast cancer cell lines; experiment: NCI SRB cytotoxicity, breast panel; format: cell-based, human; settings: average of six to eight cell lines
Source text: as §1, §2

[33] = tested on: sixty human tumour cell lines derived from nine cancer types; experiment: NCI in vitro cytotoxicity screen (SRB), sixty cell lines; format: cell-based; settings: for GI50: 48 hrs continuous drug exposure, SRB, read-out: GI50 against sixty cell lines in nine cancer cell panels; for in vitro cytotoxicity: sixty cell lines from nine human cancer types
Source text: as §1, §2

[34] = tested on: Leukemia cancer cell lines; experiment: NCI SRB cytotoxicity, leukemia panel; format: cell-based, human; settings: average of six to eight cell lines
Source text: as §1, §2

[35] = against nine human tumor cell lines

Q: Which results are given for `COc1cc2c(cc1OCCCCCn1c3ccccc3c3ccccc31)N=C[C@@H]1CCCN1C2=O` [Compound 6c, 7-Methoxy-8-[5-(9H-9-carbazoly)pentyloxy]-(11aS)-1,2,3,11a-tetrahydro-5H-Pyrrolo[2,1-c][1,4]benzodiazepin-5-one]?
A: GI50 [1]: 1730 nM; GI50 [2]: 4340 nM; GI50 [3]: 1970 nM; GI50 [4]: 1050 nM; GI50 [5]: 2050 nM; GI50 [6]: 1730 nM; GI50 [7]: 5270 nM; GI50 [8]: 1310 nM; GI50 [9]: 2200 nM; Log10 GI50 [10]: −5.64 mol/L; Log10 LC50 (concentration causing 50% lethality) [10]: −4.50 mol/L; GI50 [11]: 1710 nM; GI50 [12]: 1650 nM; GI50 [13]: 1770 nM; GI50 [14]: 1740 nM; GI50 [15]: 1730 nM; GI50 [16]: 1800 nM; GI50 [17]: 1800 nM; GI50 [18]: 2290 nM; Log10 GI50 [19]: −5.71 mol/L; Log10 LC50 (concentration causing 50% lethality) [19]: −4.74 mol/L; Log10 GI50 [20]: −5.57 mol/L; Log10 LC50 (concentration causing 50% lethality) [20]: −4.59 mol/L; GI50 [21]: 1670 nM; Log10 LC50 (concentration causing 50% lethality) [22]: −4.99 mol/L; GI50 [23]: 2140 nM; GI50 [24]: 2080 nM; Log10 GI50 [25]: −5.64 mol/L; Log10 LC50 (concentration causing 50% lethality) [25]: −4.78 mol/L; GI50 [26]: 1670 nM; GI50 [27]: 1880 nM; GI50 [28]: 3090 nM; Log10 GI50 [29]: −5.76 mol/L; Log10 LC50 (concentration causing 50% lethality) [29]: −4.97 mol/L; GI50 [30]: 1860 nM; GI50 [31]: 2110 nM; Log10 GI50 [32]: −5.67 mol/L; Log10 LC50 (concentration causing 50% lethality) [32]: −4.47 mol/L; GI50 [33]: 1030 nM; log10 GI50 mean graph midpoint value [33, 35]: −5.67 mol/lit; log10 LC50 mean graph midpoint value [33, 35]: −4.67 mol/lit; log10 TGI mean graph midpoint value [33, 35]: −5.29 mol/lit; Log10 GI50 mean graph midpoint (MG_MID) ([33]; human tumour cell lines): −5.67; Log10 LC50 mean graph midpoint (MG_MID) ([33]; human tumour cell lines): −4.67; Log10 TGI mean graph midpoint (MG_MID) ([33]; human tumour cell lines): −5.29; in vitro cytotoxicity [33]: significant cytotoxicity against some cancer cell lines; Log10 GI50 [34]: −5.56 mol/L; Log10 LC50 (concentration causing 50% lethality) [34]: −4.18 mol/L

Q: What does the source list for `COc1cc2c(cc1OCCCN1CCN(CCCn3c4ccccc4c4ccccc43)CC1)N=C[C@@H]1CCCN1C2=O` [Compound 14a]?
A: GI50 [1]: 230 nM; GI50 [2]: 220 nM; GI50 [3]: 160 nM; GI50 [4]: 150 nM; GI50 [5]: 210 nM; GI50 [6]: 190 nM; GI50 [7]: 140 nM; GI50 [8]: 270 nM; GI50 [9]: 150 nM; Log10 GI50 [10]: −7.42 mol/L; Log10 LC50 (concentration causing 50% lethality) [10]: −5.59 mol/L; GI50 [11]: 130 nM; GI50 [12]: 60 nM; GI50 [13]: 170 nM; GI50 [14]: 250 nM; GI50 [15]: < 10 nM; GI50 [16]: 80 nM; GI50 [17]: 60 nM; GI50 [18]: 150 nM; Log10 GI50 [19]: −6.91 mol/L; Log10 LC50 (concentration causing 50% lethality) [19]: −6.06 mol/L; Log10 GI50 [20]: −7.22 mol/L; Log10 LC50 (concentration causing 50% lethality) [20]: −5.80 mol/L; GI50 [21]: 280 nM; Log10 GI50 [22]: −6.72 mol/L; Log10 LC50 (concentration causing 50% lethality) [22]: −5.61 mol/L; GI50 [23]: 950 nM; GI50 [24]: < 10 nM; Log10 GI50 [25]: −6.96 mol/L; Log10 LC50 (concentration causing 50% lethality) [25]: −5.62 mol/L; GI50 [26]: 190 nM; GI50 [27]: 69 nM; GI50 [28]: 100 nM; Log10 GI50 [29]: −6.96 mol/L; Log10 LC50 (concentration causing 50% lethality) [29]: −5.67 mol/L; GI50 [30]: 150 nM; GI50 [31]: 70 nM; Log10 GI50 [32]: −6.96 mol/L; Log10 LC50 (concentration causing 50% lethality) [32]: −5.59 mol/L; GI50 [33]: < 10 nM; activity of 14a compared with 6c ([33]; GI50 comparison): ten folds higher activity than 6c; Log10 TGI mean graph midpoint (MG_MID) ([33]; human tumour cell lines): −6.24; in vitro cytotoxicity [33]: significant cytotoxicity against some cancer cell lines; Log10 GI50 [34]: −7.55 mol/L
